Experimental data published in patent US20100144733A1, “Compounds, compositions and methods comprising heteroaromatic derivatives” (Institute for OneWorld Health, priority 2008, published 2010).
Where two headings read alike, the source gives them in different places.

Molecular target: T1, CFTR (Homo sapiens, UniProt P13569)
T1 construct: endogenous in cells; host or cells: T84 human colonic cells (ECACC)
Experiment: T84 assay (FLIPR membrane potential dye, forskolin/IBMX-stimulated CFTR channel activity)
Format: cell-based
Protocol: (§1) For example, Human colonic T84 cells can be acquired from the European Collection of Cell Cultures (ECACC) and grown in standard culture conditions as described by the supplier. On the day before assay 25,000 T84 cells per well are plated into standard black walled, clear bottom 384-well assay plates in standard growth medium consisting of DMEM:F12 with 10% FBS and incubated overnight. On the day of the assay the plates are washed using a standard assay buffer (HBSS with 10 mM Hepes) and incubated for 15 minutes in serum free cell culture medium before the addition of a commercially available membrane potential sensitive fluorescent dye (FLIPRRed membrane potential dye, Molecular Devices Corporation). T84 cells are incubated with the FLIPRRed membrane potential dye for 45 minutes in the presence and absence of test compound before being transferred to a commercially available fluorescence imaging plate reader (FLIPR384, Molecular Devices Corporation). Fluorescence levels are monitored continuously every second for 150 seconds; after an initial 10 second baseline, CFTR channel activity is stimulated through the addition of 10 μM forskolin in the presence of 100 μM of the phosphodiesterase inhibitor iso-butyl-methylxanthine (IBMX). Addition of the forskolin leads to the activation of intracellular adenylyl cylase 1, elevating cAMP levels and results in the phosphorylation and opening of CFTR anion channels. CFTR channel opening causes chloride ion efflux and subsequent depolarization of the cells, which is measured by an increase in fluorescence. CFTR inihibitor compounds prevent cell depolarization and the associatred increase in fluorescence.
as §1, with “Human colonic” for “For example, Human colonic”, “T84 cells are acquired from” for “T84 cells can be acquired from”, “(ECACC) and are grown in” for “(ECACC) and grown in”, “10 μM Forskolin in the” for “10 μM forskolin in the”, “fluorescence. CFTR inhibitor compounds prevent” for “fluorescence. CFTR inihibitor compounds prevent”, “and the associated increase in” for “and the associatred increase in”

[1] = isoxazole-containing compounds (Table 10, 10′, 11, 11′), read-out: IC50
[2] = thiadiazole-containing compounds (Table 12), read-out: IC50
[3] = oxadiazole-containing compounds (a series), average of at least 2 runs unless annotated n = 1, read-out: IC50
[4] = imidazole and triazole-containing compounds (Tables 13, 14, 14′), read-out: IC50 (μM) (T84 assay)

T1 sequence (P13569 whole entry): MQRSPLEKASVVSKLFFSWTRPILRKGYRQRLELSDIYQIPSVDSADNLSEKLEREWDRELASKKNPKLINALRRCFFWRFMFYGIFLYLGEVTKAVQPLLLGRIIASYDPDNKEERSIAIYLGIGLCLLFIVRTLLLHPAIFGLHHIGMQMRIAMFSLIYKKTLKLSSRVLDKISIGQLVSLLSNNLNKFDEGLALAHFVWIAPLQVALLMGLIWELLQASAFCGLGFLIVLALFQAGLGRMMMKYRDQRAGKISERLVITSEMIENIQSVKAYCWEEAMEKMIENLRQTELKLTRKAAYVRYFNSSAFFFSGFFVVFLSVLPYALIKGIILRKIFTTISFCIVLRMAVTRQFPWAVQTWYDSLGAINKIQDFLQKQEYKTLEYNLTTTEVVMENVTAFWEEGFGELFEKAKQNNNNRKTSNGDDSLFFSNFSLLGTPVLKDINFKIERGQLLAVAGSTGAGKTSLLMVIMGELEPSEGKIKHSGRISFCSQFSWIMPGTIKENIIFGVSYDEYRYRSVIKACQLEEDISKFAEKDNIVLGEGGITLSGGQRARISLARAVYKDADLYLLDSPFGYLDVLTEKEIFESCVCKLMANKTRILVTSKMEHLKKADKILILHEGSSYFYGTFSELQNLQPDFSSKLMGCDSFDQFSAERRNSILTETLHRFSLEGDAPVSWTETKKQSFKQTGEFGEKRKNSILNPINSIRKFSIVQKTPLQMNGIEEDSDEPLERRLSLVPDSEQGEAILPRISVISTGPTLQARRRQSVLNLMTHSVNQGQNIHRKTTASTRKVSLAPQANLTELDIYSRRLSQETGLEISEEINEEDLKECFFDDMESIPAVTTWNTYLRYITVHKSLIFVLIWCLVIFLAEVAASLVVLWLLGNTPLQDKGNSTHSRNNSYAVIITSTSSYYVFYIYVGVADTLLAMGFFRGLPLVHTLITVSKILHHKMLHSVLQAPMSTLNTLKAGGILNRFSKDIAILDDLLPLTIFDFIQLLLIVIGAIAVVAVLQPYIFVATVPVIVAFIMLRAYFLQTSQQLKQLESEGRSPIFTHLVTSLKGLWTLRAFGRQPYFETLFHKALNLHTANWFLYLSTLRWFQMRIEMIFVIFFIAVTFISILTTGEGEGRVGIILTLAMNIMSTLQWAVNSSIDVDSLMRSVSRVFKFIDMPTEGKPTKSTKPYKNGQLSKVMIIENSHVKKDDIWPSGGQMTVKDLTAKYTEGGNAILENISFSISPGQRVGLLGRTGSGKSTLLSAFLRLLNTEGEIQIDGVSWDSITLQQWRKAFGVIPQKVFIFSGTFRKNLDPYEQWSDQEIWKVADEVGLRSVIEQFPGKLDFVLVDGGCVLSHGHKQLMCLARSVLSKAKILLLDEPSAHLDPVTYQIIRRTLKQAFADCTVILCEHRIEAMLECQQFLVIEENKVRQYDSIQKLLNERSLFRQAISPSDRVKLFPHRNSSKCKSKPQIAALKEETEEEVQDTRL

SMILES: CN(Cc1ccccc1)C(=O)c1cc(-c2cc(Br)c(O)c(Br)c2)on1 [1g, N-Benzyl-5-(3,5-dibromo-4-hydroxyphenyl)-N-methylisoxazole-3-carboxamide]
- IC50 [1]: 7.65 µM

SMILES: Oc1c(Cl)cc(-c2nnc(Cc3cccc(Cl)c3)s2)cc1Cl [1h, 2,6-dichloro-4-(5-(3-chlorobenzyl)-1,3,4-thiadiazol-2-yl)phenol]
- IC50 [2]: 5.65 µM

SMILES: O=C(c1nc(-c2cc(Br)c(O)c(Br)c2)no1)N(Cc1cccnc1)Cc1cccc(C(F)(F)F)c1 [2a, 3-(3,5-dibromo-4-hydroxyphenyl)-N-(pyridin-3-ylmethyl)-N-(3-(trifluoromethyl)benzyl)-1,2,4-oxadiazole-5-carboxamide]
- IC50 [3]: 1.03 µM

SMILES: Oc1c(Cl)cc(-c2nnc(COc3ccc(F)cc3Cl)s2)cc1Cl [2h, 2,6-dichloro-4(5-((2-chloro-4-fluorophenoxy)methyl)-1,3,4-thiadiazol-2-yl)phenol]
- IC50 [2]: 5.65 µM

SMILES: CN(C(=O)c1nc(-c2cc(Br)c(O)c(Br)c2)no1)c1ccc(OC(F)(F)F)cc1 [3a, 3-(3,5-dibromo-4-hydroxyphenyl)-N-methyl-N-(4(trifluoromethoxy)phenyl)-1,2,4-oxadiazole-5-carboxamide]
- IC50 [3]: 2.62 µM

SMILES: CN(Cc1cccc(C(F)(F)F)c1)C(=O)c1cc(-c2cc(Br)c(O)c(Br)c2)on1 [3g, 5-(3,5-dibromo-4-hydroxyphenyl)-N-methyl-N-(3-(trifluoromethyl)benzyl)isoxazole-3-carboxamide]
- IC50 [1]: 16.6 µM

SMILES: Oc1c(Cl)cc(-c2nnc(CN3c4ccccc4Sc4ccccc43)s2)cc1Cl [3h, 4-(5-((10H-Phenothiazin-10-yl)methyl)-1,3,4-thiadiazol-2-yl)-2,6-dichlorophenol]
- IC50 [2]: 6.57 µM

SMILES: O=C(c1nc(-c2cc(Br)c(O)c(Br)c2)no1)N1CCN(c2ccc(Cl)c(C(F)(F)F)c2)CC1 [4a, (4-(4-chloro-3-(trifluoromethyl)phenyl)piperazin-1-yl)(3-(3,5-dibromo-4-hydroxyphenyl)-1,2,4-oxadiazol-5-yl)methanone]
- IC50 [3]: 4.72 µM

SMILES: CN(Cc1ccc2c(c1)OCO2)C(=O)c1cc(-c2cc(Br)c(O)c(Br)c2)on1 [4g, N-(benzo[d][1,3]dioxol-5-ylmethyl)-5-(3,5-dibromo-4-hydroxyphenyl)-N-methylisoxazole-3-carboxamide]
- IC50 [1]: 19 µM

SMILES: Cc1cc(Cl)ccc1OCc1nnc(-c2cc(Cl)c(O)c(Cl)c2)s1 [4h, 2,6-dichloro-4(5-((4-chloro-2-methylphenoxy)methyl)-1,3,4-thiadiazol-2-yl)phenol]
- IC50 [2]: 12.7 µM

SMILES: O=C(NC(c1ccccc1)c1ccccc1)c1nc(-c2cc(Br)c(O)c(Br)c2)no1 [5a, N-benzhydryl-3-(3,5-dibromo-4-hydroxyphenyl)-1,2,4-oxadiazole-5-carboxamide]
- IC50 [3]: 5.23 µM

SMILES: CN(Cc1ccc(Cl)cc1)C(=O)c1cc(-c2cc(Br)c(O)c(Br)c2)on1 [5g, N-(4-chlorobenzyl)-5-(3,5-dibromo-4-hydroxyphenyl)-N-methylisoxazole-3-carboxamide]
- IC50 [1]: 5.31 µM

SMILES: Oc1c(Cl)cc(-c2nnc(-c3snnc3-c3ccccc3)s2)cc1Cl [5h, 2,6-dichloro-4(5-(4-phenyl-1,2,3-thiadiazol-5-yl)-1,3,4-thiadiazol-2-yl)phenol]
- IC50 [2]: 13.4 µM

SMILES: O=C(c1ncn(-c2cc(Cl)c(O)c(Cl)c2)n1)N1CCC(Cc2ccccc2)CC1 [5i, (4-benzylpiperidin-1-yl)(1-(3,5-dichloro-4-hydroxyphenyl)-1H-1,2,4-triazol-3-yl)methanone]
- IC50 [4]: 15.9 µM

SMILES: O=C(c1nc(-c2cc(Br)c(O)c(Br)c2)no1)N1CCN(c2cccc(C(F)(F)F)c2)CC1 [6a, (3-(3,5-dibromo-4-hydroxyphenyl)-1,2,4-oxadiazol-5-yl)(4-(3-(trifluoromethyl)phenyl)piperazin-1-yl)methanone]
- IC50 [3]: 6.19 µM

SMILES: CN(Cc1cccc(C(F)(F)F)c1)C(=O)c1cc(-c2cc(Cl)c(O)c(Cl)c2)on1 [6g, 5-(3,5-dichloro-4-hydroxyphenyl)-N-methyl-N-(3-(trifluoromethyl)benzyl)isoxazole-3-carboxamide]
- IC50 [1]: 7.02 µM

SMILES: Oc1c(Cl)cc(-c2nnc(Cc3ccsc3)s2)cc1Cl [6h, 2,6-dichloro-4-(5-(thiophen-3-ylmethyl)-1,3,4-thiadiazol-2-yl)phenol]
- IC50 [2]: 17.6 µM

SMILES: CN(Cc1cccc(C(F)(F)F)c1)C(=O)c1ncn(-c2cc(Cl)c(O)c(Cl)c2)n1 [6i, 1-(3,5-dichloro-4-hydroxyphenyl)-N-methyl-N-(3-(trifluoromethyl)benzyl)-1H-1,2,4-triazole-3-carboxamide]
- IC50 [4]: 16.2 µM

SMILES: O=C(NCc1ccc(Oc2ccccc2)cc1)c1nc(-c2cc(Cl)c(O)c(Cl)c2)no1 [7a, 3-(3,5-dichloro-4-hydroxyphenyl)-N-(4-phenoxybenzyl)-1,2,4-oxadiazole-5-carboxamide]
- IC50 [3]: 5.22 µM

SMILES: CN(Cc1ccc(C(F)(F)F)cc1)C(=O)c1cc(-c2cc(Cl)c(O)c(Cl)c2)on1 [7g, 5-(3,5-dichloro-4-hydroxyphenyl)-N-methyl-N-(4(trifluoromethyl)benzyl)isoxazole-3-carboxamide]
- IC50 [1]: 10.6 µM

SMILES: Oc1c(Cl)cc(-c2nnc(COc3cccc(C(F)(F)F)c3)s2)cc1Cl [7h, 2,6-dichloro-4(5-((3-(trifluoromethyl)phenoxy)methyl)-1,3,4-thiadiazol-2-yl)phenol]
- IC50 [2]: 23.4 µM

SMILES: CN(Cc1ccc(OC(F)(F)F)cc1)C(=O)c1ncn(-c2cc(Cl)c(O)c(Cl)c2)n1 [7i, 1-(3,5-dichloro-4-hydroxyphenyl)-N-methyl-N-(4(trifluoromethoxy)benzyl)-1H-1,2,4-triazole-3-carboxamide]
- IC50 [4]: 15.7 µM

SMILES: O=C(c1nc(-c2cc(Cl)c(O)c(Cl)c2)no1)N1CCN(c2cccc(C(F)(F)F)c2)CC1 [8a, (3-(3,5-dichloro-4-hydroxyphenyl)-1,2,4-oxadiazol-5-yl)(4-(3-(trifluoromethyl)phenyl) 4-(3-(trifluoromethyl)phenyl)piperazin-1-yl)methanone]
- IC50 [3]: 6.88 µM

SMILES: CN(Cc1ccc2c(c1)OCO2)C(=O)c1cc(-c2cc(Cl)c(O)c(Cl)c2)on1 [8g, N-(benzo[d][1,3]dioxol-5-ylmethyl)-5-(3,5-dichloro-4-hydroxyphenyl)-N-methylisoxazole-3-carboxamide]
- IC50 [1]: 14.6 µM

SMILES: CN(CCO)C(=O)COc1c(Cl)cc(-c2nnc(CN3c4ccccc4Sc4ccccc43)s2)cc1Cl [8h, 2-(4-(5-((10H-phenothiazin-10-yl)methyl)-1,3,4-thiadiazol-2-yl)-2,6-dichlorophenoxy)-N-(2-hydroxyethyl)-N-methylacetamide]
- IC50 [2]: 8.64 µM

SMILES: O=C(NCc1cccc(C(F)(F)F)c1)c1ncn(-c2cc(Cl)c(O)c(Cl)c2)n1 [8i, 1-(3,5-dichloro-4-hydroxyphenyl)-N-(3-(trifluoromethyl)benzyl)-1H-1,2,4-triazole-3-carboxamide]
- IC50 [4]: 22.4 µM

SMILES: O=C(NCC(c1ccccc1)c1ccccc1)c1nc(-c2cc(Br)c(O)c(Br)c2)no1 [9a, 3-(3,5-dibromo-4-hydroxyphenyl)-N-(2,2-diphenylethyl)-1,2,4-oxadiazole-5-carboxamide]
- IC50 [3]: 7.17 µM

SMILES: O=C(c1cc(-c2cc(Br)c(O)c(Br)c2)on1)N1CCC(Cc2ccccc2)CC1 [9g, (4-Benzylpiperidin-1-yl)(5-(3,5-dibromo-4-hydroxyphenyl)isoxazol-3-yl)methanone]
- IC50 [1]: 8.96 µM

SMILES: O=C(COc1c(Cl)cc(-c2nnc(CN3c4ccccc4Sc4ccccc43)s2)cc1Cl)N(CCO)CCO [9h, 2-(4-(5-((10H-phenothiazin-10-yl)methyl)-1,3,4-thiadiazol-2-yl)-2,6-dichlorophenoxy)-N,N-bis(2-hydroxyethyl)acetamide]
- IC50 [2]: 9.69 µM

SMILES: CC(NC(=O)c1ncn(-c2cc(Cl)c(O)c(Cl)c2)n1)c1ccc(F)cc1 (stereo not shown) [9i, 1-(3,5-dichloro-4-hydroxyphenyl)-N-(1-(4-fluorophenyl)ethyl)-1H-1,2,4-triazole-3-carboxamide]
- IC50 [4]: 17.6 µM

SMILES: O=C(NCc1ccc2sccc2c1)c1nc(-c2cc(Br)c(O)c(Br)c2)no1 [10a, N-(benzo[b]thiophen-5-ylmethyl)-3-(3,5-dibromo-4-hydroxyphenyl)-1,2,4-oxadiazole-5-carboxamide]
- IC50 [3]: 7.26 µM
